# Source: patent publication US8178506B2, “Oligomeric compounds and compositions for use in modulation of small non-coding RNAs” (Regulus Therapeutics Inc., priority 2003, dated 2012)
# In the oligonucleotide strings, read from the 5' end, every base follows the letter of its sugar. An asterisk marks phosphorothioate; unmarked linkages are phosphodiester. Other units and linkages are bracketed, terminal groups are in braces. A string of capitals states the bases alone. e = 2'-O-(2-methoxyethyl) (MOE); [5mC] = 5-methylcytosine
# Tests used:
# [1] = tested on: IL-12 mRNA; test: IL-12 mRNA in LPS-activated primary murine macrophages; assay type: cell-based, mouse; settings: normalized to LPS-treated cells without oligomeric compound
# Description: To investigate the role of miRNAs in the immune response, oligomeric compounds of the present invention targeting miRNAs were tested for their effects upon lipopolysaccharide (LPS)-activated primary murine macrophages. Macrophages participate in the immune response, for example, in the recognition and phagocytosis of microorganisms, including bacteria. Interferon-gamma (IFN-gamma) released by helper T cells is one type of signal required for macrophage activation, and LPS can serve as an additional stimulus. LPS is a component of the gram-negative bacterial cell wall and acts as an agonist for toll-like receptor 4 (TLR4), the primary LPS receptor expressed by macrophages. The proinflammatory cytokines interleukin-12 (IL-12) and interleukin-6 (IL-6) are induced by LPS treatment of macrophages, thus the expression of the mRNAs encoding these cytokines was used to evaluate the response of macrophages to LPS following treatment with oligomeric compounds targeting miRNAs.
# Macrophages were isolated as follows. Female C57B1/6 mice (Charles River Laboratories, Wilmington, Mass.) were injected intraperitoneally with 1 ml 3% thioglycollate broth (Sigma-Aldrich, St. Louis, Mo.), and peritoneal macrophage cells were isolated by peritoneal lavage 4 days later. The cells were plated in 96-well plates at 40,000 cells/well for one hour in serum-free RPMI adjusted to contain 10 mM HEPES (Invitrogen Life Technologies, Carlsbad, Calif.), allowed to adhere, then non-adherent cells were washed away and the media was replaced with RPMI containing 10 mM HEPES, 10% FBS and penicillin/streptomycin (“complete” RPMI; Invitrogen Life Technologies, Carlsbad, Calif.).
# Oligomeric compounds were introduced into the cells using the non-liposomal transfection reagent FuGENE 6 Transfection Reagent (Roche Diagnostics Corp., Indianapolis, Ind.). Oligomeric compound was mixed with FuGENE 6 in 1 mL of serum-free RPMI to achieve a concentration of 10 μL FuGENE per 1000 nM oligomeric compound. The oligomeric compound/FuGENE complex was allowed to form at room temperature for 20 minutes. This mixture was diluted to the desired concentration of oligomeric compound by the addition of the appropriate volume of complete RPMI. The final ratio of FuGENE 6 to oligomeric compound was 1 μL of FuGENE 6 per 100 nM oligomeric compound. A volume of 100 μL of oligomeric compound/FuGENE/RPMI was added to each well of the 96-well plate in which the macrophages were cultured. Each oligomeric compound treatment was repeated in triplicate.
# Following oligomeric compound treatment, cells were stimultated with LPS. Cells were cultured in the presence of the transfection complex for approximately 24 to 28 hours at 37° C. and 5% CO2, after which the medium containing the transfection complex was removed from the cells, and complete RPMI containing 100 ng/mL LPS (Sigma-Aldrich Corp., St. Louis, Mo.) was added to the cells for a period of approximately 24 hours. Control samples included (1) cells receiving no oligomeric compound, stimulated with LPS and (2) cells receiving neither oligomeric compound nor LPS treatment.
# In another embodiment, following oligomeric compound treatment, cells were first activated by IFN-gamma, to amplify the response to LPS. Cells were cultured in the presence of the transfection complex for approximately 24 hours at 37° C. and 5% CO2, at which point the medium containing the transfection complex was removed from the cells, and complete RPMI containing 100 ng/mL recombinant mouse IFN-gamma (R&D Systems, Minneapolis, Minn.) was added to the cells. After the 4 hour treatment with INF-gamma, cells were treated with 100 ng/mL LPS for approximately 24 hours. Control samples included (1) cells receiving no oligomeric compound, stimulated with LPS and (2) cells receiving neither oligomeric compound nor LPS treatment. […]
# [2] = tested on: HuVECs; test: Endothelial tube formation assay in HuVECs; settings: for % Activity Relative to UTC (tube formation): 75 nM oligomeric compound; for tube formation: 75 nM
# [3] = tested on: BJ, B16-F10, T47D, T47Dp53 and HeLa cells; test: Cell cycle assay (propidium iodide flow cytometry), cell line panel; assay type: cell-based; settings: 150 nM oligomeric compound, 4.5 μg/ml LIPOFECTIN, after 72 hours, propidium iodide flow cytometry
# [4] = tested on: HeLa cells; test: Cell cycle assay in HeLa cells; assay type: cell-based, human; settings: HeLa cells, 150 nM oligomeric compound
# [5] = tested on: Glut4; test: Glut4 mRNA expression in adipocytes (real-time PCR); assay type: cell-based, human; settings: differentiating adipocytes transfected with oligomeric compound
# [6] = tested on: aP2; test: aP2 mRNA expression in adipocytes (real-time PCR); assay type: cell-based, human; settings: differentiating adipocytes transfected with oligomeric compound; for aP2 mRNA: Table 75
# [7] = tested on: PPARγ; test: PPARγ mRNA expression in adipocytes (real-time PCR); assay type: cell-based, human; settings: differentiating adipocytes transfected with oligomeric compound
# [8] = tested on: adipocytes; test: Triglyceride accumulation assay in adipocytes; assay type: cell-based, human; settings: differentiating adipocytes transfected with oligomeric compound
# [9] = tested on: HSL; test: HSL mRNA expression in adipocytes (real-time PCR); assay type: cell-based, human; settings: differentiating adipocytes transfected with oligomeric compound
# [10] = tested on: PEPCK-c; test: PEPCK-c mRNA expression in HepG2 cells; assay type: cell-based, human; settings: HepG2, basal (no insulin), 100 nM
# Description: Approximately 28 hours after transfection, the cells are subjected to serum starvation for a period of 12 to 16 hours, using serum-free growth medium. Following serum starvation, cells are treated with 1 nM insulin (insulin-treated) or are left untreated (basal conditions) for approximately four hours. At the same time, untreated control cells in both plates are treated with 100 nM insulin to determine the maximal insulin response. Following insulin treatment (forty-eight hours after transfection), total RNA is harvested from all samples, and the amount of total RNA from each sample is determined using a Ribogreen assay (Invitrogen Corporation, Carlsbad, Calif.). Real-time PCR is performed on the total RNA samples using primer/probe sets for three insulin responsive genes: insulin-like growth factor binding protein-1 (IGFBP-1), cytosolic PEPCK (PEPCK-C), and follistatin. Gene expression levels obtained by real-time PCR are normalized for total RNA content in the samples.
# Oligomeric compounds of the present invention were tested for their effects on insulin signaling in HepG2 cells. HepG2 cells were plated at 7500 cells/well in collagen coated 96-well plates. The following day, cells were transfected with oligomeric compounds targeting miRNAs using 100 nM oligomeric compound in LIPOFECTIN™ (Invitrogen Corporation, Carlsbad, Calif.) in two 96-well plates. The oligomeric compounds were tested in triplicate on each 96-well plate, except for positive and negative controls, which were measured up to six times per plate. At the end of transfection, the transfection medium was replaced by regular growth medium. Twenty-eight hours post-transfection, the cells were subjected to overnight (sixteen to eighteen hours) serum starvation using serum free growth medium. Forty-four hours post-transfection, the cells in the transfected wells were treated with either no insulin (“basal” Experiment 1, for identification of insulin-mimetic compounds) or with 1 nM insulin (“insulin treated” Experiment 2, for identification of insulin sensitizers) for four hours. At the same time, in both plates, cells in some of the un-transfected control wells are treated with 100 nM insulin to determine maximal insulin response. At the end of the insulin or no-insulin treatment (forty-eight hours post-transfection), total RNA is isolated from both the basal and insulin treated (1 nM) 96-well plates, and the amount of total RNA from each sample is determined using a Ribogreen assay (Molecular Probes, Eugene, Oreg.). Real-time PCR is performed on all the total RNA samples using primer/probe sets for three insulin responsive genes: PEPCK-c, IGFBP-1 and follistatin. Expression levels for each gene are normalized to total RNA, and values+standard deviation are expressed relative to the transfectant only untreated control (UTC) and negative control compounds.
# Protocols for treatment of HepG2 cells and transfection of oligomeric compounds are as described in Example 18. Also as described in Example 18, forty-four hours post-transfection, the cells in the transfected wells were treated with either no insulin (“basal” Experiment 3 (below), for identification of insulin-mimetic compounds) or with 1 nM insulin (“insulin treated” Experiment 4 (below), for identification of insulin sensitizers) for four hours. At the same time, in both plates, cells in some of the un-transfected control wells are treated with 100 nM insulin to determine maximal insulin response. At the end of the insulin or no-insulin treatment (forty-eight hours post-transfection), total RNA is isolated from both the basal and insulin treated (1 nM) 96-well plates, and the amount of total RNA from each sample is determined using a Ribogreen assay (Molecular Probes, Eugene, Oreg.).
# [11] = 24 hours, relative to untreated control (UTC = 100)
# [12] = 48 hours after treatment, relative to untreated control (UTC=100)
Substance,G1 (percentage of cells in phase of the cell cycle) [3] [%],G2/M (percentage of cells in phase of the cell cycle) [3] [%],S (percentage of cells in phase of the cell cycle) [3] [%],SubG1 (percentage of cells in phase of the cell cycle) [3] [%],aneuploid (percentage of cells) [3] [%],% Activity Relative to UTC (tube formation) ([2]; Table 57) [%],GLUT4 mRNA ([5]; Table 75),aP2 mRNA [6],PPAR gamma mRNA ([7]; Table 75),TG (triglyceride accumulation) ([8]; Table 75),% Activity Relative to UTC (tube formation) ([2]; Table 59) [%],HSL mRNA ([9]; Table 75),other results
327883 (antisense e[5mC]*eA*eG*eA*eA*e[5mC]*eT*eT*eA*eG*e[5mC]*e[5mC]*eA*e[5mC]*eT*eG*eT*eG*eA*eA) [compound 327883],,,,,,,,,,,,,"IL-12 mRNA expression, −IFN % UTC ([1]; 300 nM oligomeric compound and LPS, no IFN-gamma pretreatment, single experiment): 266 % UTC; IL-12 mRNA expression, +IFN % UTC ([1]; 300 nM oligomeric compound, stimulation with IFN-gamma and LPS, average of 2 experiments): 39 % UTC; % Activity Relative to UTC (tube formation) ([2]; Table 56): 92.9%"
327908 (antisense e[5mC]*eA*eA*eT*eG*e[5mC]*eA*eA*e[5mC]*eT*eA*e[5mC]*eA*eA*eT*eG*e[5mC]*eA*e[5mC]) [compound 327908],55.4,15.3,29.2,5.6,13.1,103.5,,,,,,,"% cells aneuploid [4, 11]: 114%; % cells in cell cycle phase G1 [4, 11]: 98%; % cells in cell cycle phase G2/M [4, 11]: 106%; % cells in cell cycle phase S [4, 11]: 99%; % cells in cell cycle phase subG1 [4, 11]: 138%; % cells in cell cycle phase: G1 [4, 12]: 99%; % cells in cell cycle phase: G2/M [4, 12]: 105%; % cells in cell cycle phase: S [4, 12]: 98%; % cells in cell cycle phase: aneuploid [4, 12]: 93%; % cells in cell cycle phase: subG1 [4, 12]: 61%"
327909 (antisense e[5mC]*e[5mC]*e[5mC]*eA*eA*e[5mC]*eA*eA*e[5mC]*eA*eT*eG*eA*eA*eA*e[5mC]*eT*eA*e[5mC]*e[5mC]*eT*eA) [compound 327909],52.6,17.3,30.1,7.9,16.3,96.6,,,,,,,GLUT4 mRNA [5]: 132 percentage of untreated control (UTC); AP2 mRNA [6]: 88 percentage of untreated control (UTC); PPAR gamma mRNA [7]: 96 percentage of untreated control (UTC); TG (triglyceride accumulation) [8]: 132 percentage of untreated control (UTC); HSL mRNA [9]: 130 percentage of untreated control (UTC)
327914 (antisense eG*e[5mC]*e[5mC]*e[5mC]*eT*eT*eT*eT*eA*eA*e[5mC]*eA*eT*eT*eG*e[5mC]*eA*e[5mC]*eT*eG) [compound 327914],55.8,15.3,28.9,8.5,16.2,82.8,,,,,,,
327962 (antisense eG*e[5mC]*eT*eG*eA*eG*eA*eG*eT*eG*eT*eA*eG*eG*eA*eT*eG*eT*eT*eT*eA*e[5mC]*eA) [compound 327962],,,,,,,58 percentage of untreated control (UTC),75 percentage of untreated control (UTC),80 percentage of untreated control (UTC),64 percentage of untreated control (UTC),53.3,77 percentage of untreated control (UTC),
327966 (antisense eA*eT*e[5mC]*e[5mC]*eA*eA*eT*e[5mC]*eA*eG*eT*eT*e[5mC]*e[5mC]*eT*eG*eA*eT*eG*e[5mC]*eA*eG*eT*eA) [compound 327966],,,,,,,43 percentage of untreated control (UTC),53 percentage of untreated control (UTC),77 percentage of untreated control (UTC),52 percentage of untreated control (UTC),40.0,56 percentage of untreated control (UTC),
327968 (antisense e[5mC]*eA*eA*eT*eG*e[5mC]*eA*eA*e[5mC]*eA*eG*e[5mC]*eA*eA*eT*eG*e[5mC]*eA*e[5mC]) [compound 327968],,,,,,,85 percentage of untreated control (UTC),67 percentage of untreated control (UTC),79 percentage of untreated control (UTC),94 percentage of untreated control (UTC),93.3,79 percentage of untreated control (UTC),
CAGTGAATTCTACCAGTGCCATA (anti-miR; chemistry not fully specified) [ISIS 327899],,,,,,,,,,,,,decrease in PEPCK-c mRNA [10]: 58%; tube formation [2]: suppressed tube formation
CGCGTACCAAAAGTAATAATG (anti-miR; chemistry not fully specified) [ISIS 327886],,,,,,,,,,,,,decrease in PEPCK-c mRNA [10]: 39%; tube formation [2]: suppressed tube formation
